Experimental data from patent EP3300730A1, “THE MEDICAL USE OF 5,7-DIHYDROXY-3-(4-HYDROXYPHENYL)-4H-1-BENZOPIRAN-4-ONE IN THE THERAPY OF HUNTINGTON DISEASE AND PHARMACEUTICALLY ACCEPTABLE FORM OF THE DRUG” (Uniwersytet Gdanski, priority 2016, dated 2018).

Assays:
mutated huntingtin [1] = test: Western blotting of the mutated huntingtin level; assay type: cell-based, human; settings: HEK293 transfected with pEGFP-Q74; genistein 30, 60 and 100 µM; 96 h; actin internal control (Fig. 2)
Method: (§1) • Fig. 1. Number and average size of huntingtin aggregates in human embryonic kidney cells transfected with plasmid pEGFP-Q74 (bearing the 1st exon of the HTT gene with 74 CAG repeats), treated with genistein (30, 60 and 100 µM) or DMSO (control cells), in a volume equal to that of genistein, for 48 h. Error bars indicate standard deviation. Statistical analysis was performed with the t-Student test. The differences were considered significant at p<0.05. • Fig. 2. Relative level of mutated huntingtin in human embryonic kidney cells transfected with plasmid pEGFP-Q74 (bearing the 1st exon of the HTT gene with 74 CAG repeats), treated with genistein (30, 60 and 100 µM) or DMSO (control cells), in a volume equal to that of genistein, for 96 h. Actin was used as an internal control. • Fig. 3. […] Intensity of bands was estimated using the Quantity One software. • Fig. 5. Number (calculated per one cell) and volume of acidic organelles in human embryonic kidney cells transfected with plasmid pEGFP-Q74 (bearing the 1st exon of the HTT gene with 74 CAG repeats), treated with genistein (30, 60 and 100 µM) or DMSO (control cells), in a volume equal to that of genistein, for 96 h. […] The co-localization Pearson factor was calculated by using the ImageJ software. […]

[2] = tested on: human embryonic kidney cells (HEK293) transfected with plasmid pEGFP-Q74; test: MTT viability test of cells transfected with pEGFP-Q74; assay type: cell-based; settings: genistein 30, 60 and 100 µM, 48 h, MTT test (Fig. 3)
Method: as §1

[3] = tested on: aggregates of mutated huntingtin with lysosomes; test: Co-localization of mutated huntingtin aggregates with lysosomes (fluorescence microscopy, Pearson coefficient); assay type: cell-based, human; settings: 100 µM genistein; 96 h; HEK293 transfected with pEGFP-Q74; vs DMSO control (Fig. 6)
Method: as §1, with “2.” for “2. Relative level of mutated huntingtin in human embryonic kidney cells transfected with plasmid pEGFP-Q74 (bearing the 1st exon of the HTT gene with 74 CAG repeats), treated with genistein (30, 60 and 100 µM) or DMSO (control cells), in a volume equal to that of genistein, for 96 h. Actin was used as an internal control. • Fig. 3.”
In order to test whether mutant huntingtin is transported into lysosomes for degradation, co-localization of aggregates of mutated huntingtin with lysosomes was assessed using a fluorescent microscope (Fig. 6). […]

mutated huntingtin [4] = test: Western blotting of mutated huntingtin with lysosomal function inhibited by chloroquine; assay type: cell-based, human; settings: in the presence of 10 µM chloroquine; genistein 30, 60 and 100 µM; 96 h; HEK293 transfected with pEGFP-Q74 (Fig. 7)
Method: as §1

LC3-II protein = test: Immunodetection (Western blotting) of the autophagy marker LC3-II; assay type: cell-based, human; settings: 96 h
Method: as §1

huntingtin aggregates = test: Fluorescence microscopy of huntingtin aggregates in transfected cells; assay type: cell-based, human; settings: HEK293 transfected with pEGFP-Q74; genistein 30, 60 and 100 µM; 48 h; vs DMSO control (Fig. 1)
Method: as §1

acidic organelles = test: LysoTracker Red staining of acidic organelles (lysosomes), ImageJ analysis; assay type: cell-based, human; settings: 96 h, HEK293 transfected with pEGFP-Q74, LysoTracker Red (Fig. 5)
Text: • Fig. 1. […] Error bars indicate standard deviation. […] Error bars indicate standard deviation. […] Error bars indicate standard deviation.

O=c1c(-c2ccc(O)cc2)coc2cc(O)cc(O)c12 [genistein, 5,7-dihydroxy-3-(4-hydroxyphenyl)-4H-1-benzopiran-4-one]
level of mutant huntingtin in cells (mutated huntingtin [1]): significantly reduces | viability of cells [2]: increase in viability | co-localization of aggregates of mutated huntingtin with lysosomes [3]: increased significantly | level of mutated huntingtin (mutated huntingtin [4]): did not change significantly | LC3-II protein amount (LC3-II protein; HEK293 transfected with pEGFP-Q74, genistein 30, 60 and 100 µM, vs DMSO control (Fig. 4)): genistein-concentration-dependent increase | fold induction at 100 µM (LC3-II protein; Homo sapiens, highest genistein concentration (100 µM), HEK293 transfected with pEGFP-Q74 (Fig. 4), read-out: LC3-II protein level relative to control experiment): ~4 | number of mutant huntingtin aggregates in cells (huntingtin aggregates): decrease in both size and number | size of mutant huntingtin aggregates in cells (huntingtin aggregates): decrease in both size and number | number of acid organelles (acidic organelles; 30 µM genistein): increase is visible | volume of acid organelles (acidic organelles; 30 µM genistein): increase in the volume of acid organelles was evident | number of acid organelles (acidic organelles; 100 µM genistein): difference relative to the control is significant
